PMC11249646, “Small-Molecule Disruptors of the Interaction between Calcium- and Integrin-Binding Protein 1 and Integrin αIIbβ3 as Novel Antiplatelet Agents” (ACS Pharmacology & Translational Science, 2024)
Like-named read-outs stand apart in the source and are kept apart here.

Key:
[1] = biological target: T1, CIB1 and αIIb interaction (CIB1-GST : F-αIIb peptide) (Homo sapiens, UniProt Q99828); assay: FP assay, 1536-well qHTS format (primary and confirmatory screen); format: binding; details: for Curve Class (confirmatory screen) / CONFIRMATORY SCREEN Curve Class: qHTS curve class
T1 construct: made in house; host or cells: BL-21 plus RIL cells (E. coli)
T1 sequence (Q99828 1-191): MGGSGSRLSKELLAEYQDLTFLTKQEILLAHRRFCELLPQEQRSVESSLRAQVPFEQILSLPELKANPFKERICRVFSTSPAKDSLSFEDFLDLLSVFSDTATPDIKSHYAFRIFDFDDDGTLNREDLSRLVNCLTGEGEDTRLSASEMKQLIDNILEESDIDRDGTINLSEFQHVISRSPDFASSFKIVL

[2] = biological target: T2, GST-CIB1 : F-scrambled peptide (Homo sapiens, UniProt Q99828); assay: FP scrambled-peptide counter screen, 1536-well format; format: binding; details: for Curve Class (counterscreen) / COUNTERSCREEN Curve Class: qHTS curve class; for IC50: read-out: IC50 [μM] (counterscreen)
T2 construct: made in house; host or cells: BL-21 plus RIL cells (E. coli)
T2 sequence (Q99828 1-191): T1 sequence (Q99828 1-191)

[3] = Table S3, confirmatory screen, YES/NO call
[4] = Table S3, confirmatory screen, a negative sign marks inhibitory curves
[5] = Table S3, confirmatory screen, negative = inhibition
[6] = Table S3, confirmatory screen, read-out: IC50 [μM] (confirmatory screen)
[7] = qHTS FP screen hits, Table S2, negative = inhibition
[8] = qHTS FP screen hits, Table S2, one class per curve where COUNT > 1, negative sign = inhibitory curve
[9] = qHTS FP screen hits, Table S2, read-out: IC50
[10] = Table S3, counterscreen, a negative sign marks inhibitory curves
[11] = Table S3, counterscreen, negative = inhibition
[12] = qHTS primary screen hits, Table S2, negative = inhibition
[13] = qHTS primary screen hits, Table S2, negative sign = inhibitory curve, several classes where COUNT > 1
[14] = qHTS primary screen hits, Table S2, read-out: IC50
[15] = confirmatory screen, negative sign = inhibitory curve
[16] = confirmatory screen, read-out: IC50 [μM] (confirmatory screen)
[17] = counterscreen, negative sign = inhibitory curve

| Confirm? (confirmatory screen) [1, 3] | Curve Class (confirmatory screen) [1, 4] | Efficacy (%) (confirmatory screen) [1, 5] | IC50 [1, 6] [µM] | Efficacy (%) [1, 7] [%] | Curve Class [1, 8] | IC50 [1, 9] [µM] | Curve Class (counterscreen) [2, 10] | Efficacy (%) (counterscreen) [2, 11] | IC50 ([2]; Table S3, counterscreen) [µM] | Efficacy (%) (confirmatory screen) ([1]; confirmatory screen) | Confirm? (confirmatory screen) ([1]; confirmatory screen, YES/NO) | Curve Class (confirmatory screen) [1, 15] | IC50 [1, 16] [µM] | Efficacy (%) (counterscreen) ([2]; counterscreen) | Curve Class (counterscreen) [2, 17] | IC50 ([2]; counterscreen) [µM] | Compound | other results |
| --- | --- | --- | --- | --- | --- | --- | --- | --- | --- | --- | --- | --- | --- | --- | --- | --- | --- | --- |
| YES | -1.2 | -43 | 2 | -32 | -1.2 | 2.5 | -1.2 | -47 | 2.2 | – | – | – | – | – | – | – | C=C1C(=O)OC2C(OC(=O)C=C(C)C)C(C)=C3C(=O)C=C(C)C3C(O)C12 (centres unmarked) [NCGC00380563-01] | – |
| – | 4 | -25 | – | -53 | -2.2 | 56.2 | -3 | 0 | – | – | – | – | – | – | – | – | CC(=O)c1c(O)cc2c(c1C)C(=O)CC(O)C2 (centres unmarked) [NCGC00380695-01] | – |
| – | – | – | – | -35 | -1.2 | 3.5 | – | – | – | -43 | YES | -1.2 | 1.6 | -39 | -1.2 | 1.6 | C=C1C(=O)O[C@@H]2[C@H]3C(C)=CC(=O)C3=C(C)[C@@H](OC(=O)/C(C)=C\C)[C@H](O)[C@@H]12 [NCGC00380702-01] | – |
| – | – | – | – | -42 | -2.2 | 44.7 | – | – | – | -68 | YES | -2.2 | – | -55 | -2.2 | 39.8 | CC1(C)C=CN2C(=O)C3=CCCN3C(=O)[C@@H]2C[C@@]12Nc1ccccc1C2=O [NCGC00380729-01] | – |
| YES | -2.2 | -84 | 39.8 | -51 | -2.2 | 50.1 | -2.1 | -99 | 39.8 | – | – | – | – | – | – | – | CC(=O)c1c(O)cc2cccc3c2c1CC(C)(O)O3 (centres unmarked) [NCGC00381142-01] | – |
| – | – | – | – | -50 | -2.2 | 50.1 | – | – | – | -74 | YES | -2.2 | 44.7 | -85 | -2.2 | 89.1 | CC(=O)NC(Cc1c[nH]c2ccccc(=O)c12)C(=O)O (centres unmarked) [NCGC00381382-01] | – |
| – | – | – | – | -29 | -1.2 | 25.1 | – | – | – | – | – | – | – | – | – | – | O=C(c1ccccc1)c1c(O)cc(O)cc1O[C@@H]1O[C@H](CO)[C@@H](O)[C@H](O)[C@H]1O [NCGC00384934-01] | CONFIRMATORY SCREEN Efficacy (%) ([1]; confirmatory screen): -21%; CONFIRMATORY SCREEN Curve Class ([1]; confirmatory screen): 4; COUNTERSCREEN Efficacy (%) ([2]; counterscreen): -31%; COUNTERSCREEN Curve Class ([2]; counterscreen): 4 |
| YES | -2.2 | -65 | 50.1 | -58 | -2.2 | 56.2 | -2.1 | -105 | 79.4 | – | – | – | – | – | – | – | COc1ccc(CC(NC(C)=O)C(=O)O)cc1 (centres unmarked) [NCGC00384987-01] | – |
| YES | -1.1 | -85 | 11.2 | -54 | -2.2 | 31.6 | -1.1 | -86 | 15.8 | – | – | – | – | – | – | – | OC[C@H]1O[C@@H](Oc2ccc(O)c3cccc(O)c23)[C@H](O)[C@@H](O)[C@@H]1O [NCGC00385147-01] | – |
| YES | -2.1 | -124 | 50.1 | -116 | -2.1 | 44.7 | -2.1 | -123 | 44.7 | – | – | – | – | – | – | – | Cc1c(Cc2ccc3ccccc3n2)c2cc(F)ccc2n1CC(=O)O [NCGC00386286-04] | – |
| – | – | – | – | -87 | -2.2 | 44.7 | – | – | – | -92 | YES | -1.1 | 12.6 | -60 | -1.2 | 5 | O=C(O)CSc1cc(NS(=O)(=O)c2ccc(Br)cc2)c2ccccc2c1O [NCGC00386409-01] | – |

The remaining lines, values behind:

| Compound | Confirm? (confirmatory screen) [1, 3] | Curve Class (confirmatory screen) [1, 4] | Efficacy (%) (confirmatory screen) [1, 5] | IC50 [1, 6] [µM] | Efficacy (%) [1, 7] [%] | Curve Class [1, 8] | IC50 [1, 9] [µM] | Curve Class (counterscreen) [2, 10] | Efficacy (%) (counterscreen) [2, 11] | IC50 ([2]; Table S3, counterscreen) [µM] | Efficacy (%) (confirmatory screen) ([1]; confirmatory screen) | Confirm? (confirmatory screen) ([1]; confirmatory screen, YES/NO) | Curve Class (confirmatory screen) [1, 15] | IC50 [1, 16] [µM] | Efficacy (%) (counterscreen) ([2]; counterscreen) | Curve Class (counterscreen) [2, 17] | IC50 ([2]; counterscreen) [µM] | other results |
| --- | --- | --- | --- | --- | --- | --- | --- | --- | --- | --- | --- | --- | --- | --- | --- | --- | --- | --- |
| COc1ccccc1Nc1ccc2c(O)cc(S(=O)(=O)O)cc2c1.O=C(O)C(F)(F)F [NCGC00372954-01] | YES | -2.1 | -93 | 25.1 | -41 | -2.2 | 35.5 | -2.4 | -89 | 22.4 | – | – | – | – | – | – | – | – |
| O=C1C=CC(=O)N1c1ccc(N2CCOCC2)cc1 [NCGC00373122-01] | – | – | – | – | – | – | – | – | – | – | – | – | – | – | – | – | – | CONFIRMATORY SCREEN Efficacy (%) ([1]; confirmatory screen): -44%; CONFIRMATORY SCREEN Curve Class ([1]; confirmatory screen): 4; Efficacy (%) [1, 12]: -33%; Curve Class [1, 13]: -2.4; IC50 [1, 14]: 28.2 µM; COUNTERSCREEN Efficacy (%) ([2]; counterscreen): -8%; COUNTERSCREEN Curve Class ([2]; counterscreen): 4 |
| C=C1C(OC(=O)/C(C)=C\C)[C@@]23CCC4[C@@](C)(CCC[C@@]4(C)C(=O)O)C2CC[C@H]1C3OC(C)=O (some centres unmarked) [NCGC00381205-01] | – | – | – | – | -30 | -2.2 | 20 | – | – | – | -71 | YES | -2.2 | 31.6 | -31 | -1.4 | 8.9 | – |
| NS(=O)(=O)c1ccc(Cc2c(-c3ccc(F)c(-c4ccc(F)cc4)c3)nn(-c3nc(C(=O)O)cs3)c2C2CC2)cc1F.O=C(O)C(F)(F)F [NCGC00381623-01] | – | 3 | 124 | – | – | – | – | – | 250 | 79.4 | – | – | – | – | – | – | – | Efficacy (%) [1, 12]: -25%; Curve Class [1, 13]: -2.4; IC50 [1, 14]: 39.8 µM |
| Cn1cnc(-c2nccc3c(O)nc(OCCCC(F)(F)F)nc23)c1.O=C(O)C(F)(F)F [NCGC00381768-02] | – | 4 | -16 | – | – | – | – | 4 | -28 | – | – | – | – | – | – | – | – | Efficacy (%) [1, 12]: -25%; Curve Class [1, 13]: -2.4; IC50 [1, 14]: 31.6 µM |
| COc1ccc2nc3[nH]nc(C)c3c(NCCOCCO)c2c1 [NCGC00384193-04] | YES | -2.2 | -47 | – | -75 | -2.2 | 50.1 | -2.2 | -75 | 89.1 | – | – | – | – | – | – | – | – |
| CCN(CC)CCN(Cc1ccc(-c2ccc(C(F)(F)F)cc2)cc1)C(=O)Cn1c(SCc2ccc(F)cc2)nc(=O)c2c1CCC2 [NCGC00386337-05] | – | – | – | – | -54 | -2.2 | 56.2 | – | – | – | -65 | YES | -1.2 | 35.5 | -46 | -2.2 | 31.6 | – |
| COc1ccc2[nH]c([S+]([O-])Cc3ncc(C)c(OC)c3C)nc2n1 (centres unmarked) [NCGC00386399-04] | YES | -1.2 | -44 | 25.1 | – | – | – | -2.2 | -72 | 44.7 | – | – | – | – | – | – | – | – |
| N#Cc1ccc(Nc2nc(-c3ccc(O)cc3O)cs2)cc1C(F)(F)F [NCGC00386816-01] | – | – | – | – | -71 | -2.2 | 35.5 | – | – | – | -72 | YES | -2.2 | 50.1 | -65 | -2.2 | 28.2 | – |
| CCC(C)Cn1c(O)cc2nn(-c3nc4ccccc4s3)c(=O)c-2c1C.O=C(O)C(F)(F)F (centres unmarked) [NCGC00386995-01] | YES | -1.4 | -40 | 35.5 | – | – | – | -1.2 | -51 | 11.2 | – | – | – | – | – | – | – | – |
| O=c1nc(-c2ccccn2)sc2ccccc12 [NCGC00387147-01] | – | – | – | – | -72 | -1.2 | 28.2 | – | – | – | -28 | YES | -2.4 | 44.7 | 0 | 4 | – | Confirm? (counterscreen) ([2]; counterscreen, YES/NO): YES |
